Results published in paper PMC10003010, “A Unique In Vitro Assay to Investigate ABCB4 Transport Function” (International Journal of Molecular Sciences, 2023).
“Also recorded” adds a separate entry of the source. Like-named read-outs stand apart in the source and are kept apart here.

Experiments:
ABCB4 [1] = settings: cited from earlier work; for In Vitro Literature Data, inhibitor (IC50 value was not determined): digoxin transport in ABCB4-transfected LLC-PK1 cells
human ABCB4 [2] = target: T1, human ABCB4 (Homo sapiens, UniProt P21439); test: Inhibition of ABCB4-mediated digoxin transport, bidirectional assay in Abcb1KO-MDCKII-ABCB4 cells; type: cell-based
T1 construct: expressed in transfected cells; host or cells: Abcb1KO-MDCKII (canine kidney, Abcb1 knockout), lentiviral transduction, single clone

ABCB4 [3] = settings: read-out: In Vitro Literature Data (IC50), cited from earlier work
[4] = ref FDA Liver Toxicity Knowledge Base (LTKB); cited from earlier work
ABCB1 = ABCB1 (Homo sapiens, UniProt P08183); settings: Y/N; cited from earlier work
human ABCB4 [5] = target: T1, human ABCB4; test: Bidirectional transport (efflux ratio) in Abcb1KO-MDCKII-ABCB4 cells, substrate test; type: in vitro ADME; settings: for ABCB4 substrate status, in words: bidirectional transport, ER cut-off 2
canine Abcb1 [6] = target: T2, canine Abcb1 (Canis lupus familiaris, UniProt C0KKU9); test: in vitro; settings: dog, MDCK, pH 7.4
ABCB4 [7] = settings: cited from earlier work; for IC50: read-out: In Vitro Literature Data (IC50)
canine Abcb1 [8] = target: T2, canine Abcb1; design: To confirm the impact of endogenous canine Abcb1 on the efflux ratio (ER); host or cells: MDCKII parental (wildtype) cells; method as in PMID 31266750; settings: previous study; cited from earlier work
[9] = digoxin 1 µM probe, ABCB4 cell monolayers, samples at 3 h, read-out: IC50 (µM), Based on Digoxin ER
[10] = primary hepatocyte assay, labeled PC

T1 sequence (P21439 1-1279 isoform P21439-2): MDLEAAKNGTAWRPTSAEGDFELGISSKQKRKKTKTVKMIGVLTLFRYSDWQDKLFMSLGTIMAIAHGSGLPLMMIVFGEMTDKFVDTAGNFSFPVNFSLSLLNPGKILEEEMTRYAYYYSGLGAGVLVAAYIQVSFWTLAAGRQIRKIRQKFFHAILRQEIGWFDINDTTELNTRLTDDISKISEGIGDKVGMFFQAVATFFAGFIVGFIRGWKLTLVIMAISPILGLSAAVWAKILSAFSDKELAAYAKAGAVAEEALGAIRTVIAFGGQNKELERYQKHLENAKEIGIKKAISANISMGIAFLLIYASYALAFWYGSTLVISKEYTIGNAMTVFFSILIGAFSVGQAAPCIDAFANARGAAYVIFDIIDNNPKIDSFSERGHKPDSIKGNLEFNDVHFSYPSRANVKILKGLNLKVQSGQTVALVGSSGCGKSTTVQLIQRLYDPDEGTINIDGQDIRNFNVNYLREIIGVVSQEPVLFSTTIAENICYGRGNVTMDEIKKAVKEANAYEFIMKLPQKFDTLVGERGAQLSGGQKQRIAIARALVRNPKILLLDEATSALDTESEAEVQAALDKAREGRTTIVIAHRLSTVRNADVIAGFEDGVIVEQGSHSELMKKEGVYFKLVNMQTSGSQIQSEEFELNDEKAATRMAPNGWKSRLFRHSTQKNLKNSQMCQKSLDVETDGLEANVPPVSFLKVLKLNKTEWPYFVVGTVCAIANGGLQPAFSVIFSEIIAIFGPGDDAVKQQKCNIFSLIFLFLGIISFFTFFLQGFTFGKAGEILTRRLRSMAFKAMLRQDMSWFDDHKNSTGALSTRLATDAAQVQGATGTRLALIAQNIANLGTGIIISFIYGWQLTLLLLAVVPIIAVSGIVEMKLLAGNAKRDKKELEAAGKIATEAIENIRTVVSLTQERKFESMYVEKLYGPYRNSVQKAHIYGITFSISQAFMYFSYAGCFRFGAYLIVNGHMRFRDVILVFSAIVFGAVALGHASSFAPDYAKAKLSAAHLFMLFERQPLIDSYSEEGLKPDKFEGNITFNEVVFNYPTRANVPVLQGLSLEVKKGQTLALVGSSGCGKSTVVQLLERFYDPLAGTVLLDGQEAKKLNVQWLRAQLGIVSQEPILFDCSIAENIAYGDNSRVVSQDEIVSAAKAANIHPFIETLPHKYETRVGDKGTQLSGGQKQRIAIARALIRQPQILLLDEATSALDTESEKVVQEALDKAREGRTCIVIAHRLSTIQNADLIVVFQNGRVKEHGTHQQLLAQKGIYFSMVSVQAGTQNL
T2 sequence (C0KKU9 1-1281): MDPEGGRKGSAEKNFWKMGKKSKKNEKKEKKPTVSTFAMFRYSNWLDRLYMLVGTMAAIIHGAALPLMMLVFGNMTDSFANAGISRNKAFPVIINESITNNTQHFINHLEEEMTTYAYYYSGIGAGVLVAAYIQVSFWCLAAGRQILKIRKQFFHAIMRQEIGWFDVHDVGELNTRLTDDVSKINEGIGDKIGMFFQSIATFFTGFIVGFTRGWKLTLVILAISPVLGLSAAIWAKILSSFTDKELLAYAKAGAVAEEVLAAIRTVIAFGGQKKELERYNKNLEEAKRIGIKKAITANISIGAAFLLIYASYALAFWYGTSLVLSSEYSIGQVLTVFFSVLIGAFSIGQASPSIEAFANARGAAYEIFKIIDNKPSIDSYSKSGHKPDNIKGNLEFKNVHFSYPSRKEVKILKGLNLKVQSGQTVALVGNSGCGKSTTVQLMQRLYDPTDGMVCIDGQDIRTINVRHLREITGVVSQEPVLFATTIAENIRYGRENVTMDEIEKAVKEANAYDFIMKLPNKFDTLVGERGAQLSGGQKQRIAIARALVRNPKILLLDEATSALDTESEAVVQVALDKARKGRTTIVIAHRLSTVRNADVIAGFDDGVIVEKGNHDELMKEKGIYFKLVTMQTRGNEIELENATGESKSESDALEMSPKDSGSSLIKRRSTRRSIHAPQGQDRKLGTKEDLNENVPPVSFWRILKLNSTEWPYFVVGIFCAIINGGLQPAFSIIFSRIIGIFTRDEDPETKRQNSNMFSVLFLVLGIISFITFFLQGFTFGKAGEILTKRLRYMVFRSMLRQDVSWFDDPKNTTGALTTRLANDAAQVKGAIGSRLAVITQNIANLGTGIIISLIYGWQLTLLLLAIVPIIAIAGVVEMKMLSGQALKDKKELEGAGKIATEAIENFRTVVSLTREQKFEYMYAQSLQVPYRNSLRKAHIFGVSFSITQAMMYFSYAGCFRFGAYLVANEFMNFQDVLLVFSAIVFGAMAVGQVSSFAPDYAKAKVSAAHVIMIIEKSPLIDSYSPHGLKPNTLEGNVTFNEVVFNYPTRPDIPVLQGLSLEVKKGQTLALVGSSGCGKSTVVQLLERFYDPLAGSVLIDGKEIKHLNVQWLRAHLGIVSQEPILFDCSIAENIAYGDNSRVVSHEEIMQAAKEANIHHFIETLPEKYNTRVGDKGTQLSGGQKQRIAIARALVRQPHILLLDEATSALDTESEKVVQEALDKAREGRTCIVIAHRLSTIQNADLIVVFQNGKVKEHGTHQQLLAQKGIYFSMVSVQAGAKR
Sequence of ABCB1 (P08183 whole entry): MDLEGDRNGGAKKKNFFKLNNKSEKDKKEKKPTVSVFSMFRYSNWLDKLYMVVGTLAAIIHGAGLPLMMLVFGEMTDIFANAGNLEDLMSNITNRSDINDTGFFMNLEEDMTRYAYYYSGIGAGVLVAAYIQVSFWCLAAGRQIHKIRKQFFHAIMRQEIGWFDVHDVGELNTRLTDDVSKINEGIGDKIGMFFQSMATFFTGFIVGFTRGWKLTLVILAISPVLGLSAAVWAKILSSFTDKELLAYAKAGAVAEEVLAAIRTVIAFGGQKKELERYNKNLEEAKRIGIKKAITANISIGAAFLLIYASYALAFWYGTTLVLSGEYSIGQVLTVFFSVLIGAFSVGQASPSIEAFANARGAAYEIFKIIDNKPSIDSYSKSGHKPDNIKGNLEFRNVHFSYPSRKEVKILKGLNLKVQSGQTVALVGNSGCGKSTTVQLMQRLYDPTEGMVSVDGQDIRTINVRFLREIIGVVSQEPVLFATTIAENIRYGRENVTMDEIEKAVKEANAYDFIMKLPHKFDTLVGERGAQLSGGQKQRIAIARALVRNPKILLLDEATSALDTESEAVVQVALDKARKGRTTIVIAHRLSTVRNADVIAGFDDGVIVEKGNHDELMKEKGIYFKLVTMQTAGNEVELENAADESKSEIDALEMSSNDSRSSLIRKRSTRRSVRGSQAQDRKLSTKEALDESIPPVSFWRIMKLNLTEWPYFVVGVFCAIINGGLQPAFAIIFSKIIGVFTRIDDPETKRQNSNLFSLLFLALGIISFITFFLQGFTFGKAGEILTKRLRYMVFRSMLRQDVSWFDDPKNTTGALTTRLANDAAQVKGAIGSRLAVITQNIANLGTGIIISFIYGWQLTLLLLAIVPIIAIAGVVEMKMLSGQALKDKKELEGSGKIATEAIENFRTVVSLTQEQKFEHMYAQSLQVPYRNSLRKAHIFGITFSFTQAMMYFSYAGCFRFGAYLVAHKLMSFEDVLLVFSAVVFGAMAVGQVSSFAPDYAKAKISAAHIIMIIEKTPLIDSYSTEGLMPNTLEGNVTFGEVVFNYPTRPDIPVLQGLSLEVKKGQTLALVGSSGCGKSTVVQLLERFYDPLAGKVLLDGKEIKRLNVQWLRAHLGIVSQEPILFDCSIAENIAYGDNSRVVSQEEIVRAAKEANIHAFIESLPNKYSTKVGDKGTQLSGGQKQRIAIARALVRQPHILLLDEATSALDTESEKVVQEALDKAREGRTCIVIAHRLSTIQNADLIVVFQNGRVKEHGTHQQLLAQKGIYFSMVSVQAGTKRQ

Molecule | Effect on ABCB4-mediated digoxin transport, in words (human ABCB4 [2]; digoxin 1 µM probe) | IC50 (human ABCB4 [2]; [9]) | DILI Concern [4] | further results
COc1ccc(CCN(C)CCCC(C#N)(c2ccc(OC)c(OC)c2)C(C)C)cc1OC (stereo not drawn) [verapamil] | – | – | – | In Vitro Literature Data, inhibitor (IC50 value was not determined) (ABCB4 [1]): inhibitor
Nc1cc(N2CCCCC2)nc(N)[n+]1[O-] [minoxidil] | no effect | > 20 µM | – | IC50 (ABCB4 [3]; human primary hepatocyte assay): > 300 µM
CCOC(=O)C1=C(COCCN)NC(C)=C(C(=O)OC)C1c1ccccc1Cl (stereo not drawn) [amlodipine] | weak interaction | 17.9 µM | – | –
C/C=C/C[C@@H](C)C(=O)[C@H]1C(=O)N[C@@H](C(C)C)C(=O)N(C)CC(=O)N(C)[C@@H](CC(C)C)C(=O)N[C@@H](C(C)C)C(=O)N(C)[C@@H](CC(C)C)C(=O)N[C@@H](C)C(=O)N[C@H](C)C(=O)N(C)[C@@H](CC(C)C)C(=O)N(C)[C@@H](CC(C)C)C(=O)N(C)[C@@H](C(C)C)C(=O)N1C [valspodar] | potent ABCB4 inhibitor | – | – | IC50 (human ABCB4 [2]): 0.15 µM; In Vitro Literature Data, inhibitor (IC50 value was not determined) (ABCB4 [1]): Inhibitor ^d [16]
OC(Cn1cncn1)(Cn1cncn1)c1ccc(F)cc1F [fluconazole] | – | – | Most DILI concern | IC50 (human ABCB4 [2]): > 3 µM; IC50 (ABCB4 [3]; human primary hepatocyte assay): > 300 µM
NC(=O)N1c2ccccc2C=Cc2ccccc21 [carbamazepine] | – | > 80 µM | Most DILI concern | IC50 (ABCB4 [3]; human primary hepatocyte assay): > 300 µM; ABCB1 Interactor (ABCB1): Conflicting information [50]
CCCCc1oc2ccccc2c1C(=O)c1cc(I)c(OCCN(CC)CC)c(I)c1 [amiodarone] | – | > 10 µM | – | –
COc1cc2c(cc1OC)CN(CCc1ccc(NC(=O)c3cccc4c(=O)c5cccc(OC)c5[nH]c34)cc1)CC2 [elacridar] | strong concentration-dependent inhibitory effect | 0.15 µM | – | –
CNC(=O)c1cc(Oc2ccc(NC(=O)Nc3ccc(Cl)c(C(F)(F)F)c3)cc2)ccn1 [sorafenib] | – | 4.42 µM | Most DILI concern | –
CC(=O)Oc1ccccc1C(=O)O [acetylsalicylic acid] | no effect | > 100 µM | No DILI concern | IC50 (ABCB4 [3]; human primary hepatocyte assay): > 300 µM
COCC(=O)O[C@]1(CCN(C)CCCc2nc3ccccc3[nH]2)CCc2cc(F)ccc2[C@@H]1C(C)C [mibefradil] | strong concentration-dependent inhibitory effect | 0.4 µM | – | –
C[C@H]1O[C@@H](O[C@H]2[C@@H](O)C[C@H](O[C@H]3[C@@H](O)C[C@H](O[C@H]4CC[C@@]5(C)[C@H](CC[C@@H]6[C@@H]5C[C@@H](O)[C@]5(C)[C@@H](C7=CC(=O)OC7)CC[C@]65O)C4)O[C@@H]3C)O[C@@H]2C)C[C@H](O)[C@@H]1O [digoxin] | – | – | – | ABCB4 substrate status, in words (human ABCB4 [5]): shared substrate for ABCB1 and ABCB4; efflux ratio at 1 µM (canine Abcb1 [6]): 4.74 ± 0.15
CCOC(=O)C1=C(C)NC(C)=C(C(=O)OC)C1c1cccc(Cl)c1Cl (stereo not drawn) [felodipine] | no interaction | > 30 µM | – | –
CC(=O)N1CCN(c2ccc(OCC3COC(Cn4ccnc4)(c4ccc(Cl)cc4Cl)O3)cc2)CC1 (stereo not drawn) [ketoconazole] | – | – | Most DILI concern | IC50 (human ABCB4 [2]): 0.56 µM; IC50 (ABCB4 [7]): 4.6 µM
CN(Cc1cnc2nc(N)nc(N)c2n1)c1ccc(C(=O)N[C@@H](CCC(=O)O)C(=O)O)cc1 [methotrexate] | did not detect interaction; also recorded: did not show inhibition | > 10 µM | Most DILI concern | IC50 (ABCB4 [3]; human primary hepatocyte assay): 3.1 µM
ivermectin | ABCB4 inhibitor | 0.53 µM | Less DILI concern | In Vitro Literature Data, substrate (ABCB4 [1]; LLC-PK1-ABCB4 cells): Substrate [16]
CCC(C)n1ncn(-c2ccc(N3CCN(c4ccc(OCC5COC(Cn6cncn6)(c6ccc(Cl)cc6Cl)O5)cc4)CC3)cc2)c1=O (stereo not drawn) [itraconazole] | – | 0.17 µM | Most DILI concern | Effect on ABCB4-mediated transport of gefitinib (human ABCB4 [5]; itraconazole 2 µM, gefitinib 0.5 µM): inhibited; IC50 (ABCB4 [3]; [10]): 2.1 µM; In Vitro Literature Data, % inhibition at 10 µM (ABCB4 [1]; 10 µM, LLC-PK1-ABCB4 cells): 30%; In Vitro Literature Data, % inhibition at 1 µM (ABCB4 [7]; 1 µM): 50%; IC50 (ABCB4 [7]): 22.5 µM
O[C@@H](COc1cccc2ncccc12)CN1CCN([C@@H]2c3ccccc3[C@@H]3[C@H](c4ccccc42)C3(F)F)CC1 [zosuquidar] | strong concentration-dependent inhibitory effect | 0.07 µM | – | –
maraviroc | – | – | – | Affinity for endogenous canine Abcb1 in MDCKII cell lines, in words (canine Abcb1 [8]): strong affinity
CC(C)CN(C[C@@H](O)[C@H](Cc1ccccc1)NC(=O)O[C@H]1CO[C@H]2OCC[C@H]21)S(=O)(=O)c1ccc(N)cc1 [darunavir] | ABCB4 inhibitors | > 10 µM | – | inhibition at 10 µM (human ABCB4 [2]; read-out: % inhibition of ABCB4-mediated digoxin transport at 10 µM, 10 µM test drug, digoxin 1 µM): 60%
CC(C)c1nc(CN(C)C(=O)N[C@H](C(=O)N[C@@H](Cc2ccccc2)C[C@H](O)[C@H](Cc2ccccc2)NC(=O)OCc2cncs2)C(C)C)cs1 [ritonavir] | – | – | Most DILI concern | IC50 (ABCB4 [3]; human primary hepatocyte assay): […]; IC50 (ABCB4 [3]; [10]): […]
COc1ccccc1OCCNCC(O)COc1cccc2[nH]c3ccccc3c12 (stereo not drawn) [carvedilol] | – | 0.7 µM | Less DILI concern | –
Cc1cccc(C)c1OCC(=O)N[C@@H](Cc1ccccc1)[C@@H](O)C[C@H](Cc1ccccc1)NC(=O)[C@H](C(C)C)N1CCCNC1=O [lopinavir] | ABCB4 inhibitors | 0.6 µM | – | –
COc1cc2nc(N3CCN(C(=O)c4ccco4)CC3)nc(N)c2cc1OC [prazosin] | – | 16.1 µM | – | ABCB4 substrate status, in words (human ABCB4 [5]): minor ABCB4-mediated directional transport
CCc1oc2ccccc2c1C(=O)c1cc(Br)c(O)c(Br)c1 [benzbromarone] | – | – | Most DILI concern | IC50 (human ABCB4 [2]): 19.9 µM; IC50 (ABCB4 [3]; human primary hepatocyte assay): 0.4 µM

Second part, led by results:

Effect on ABCB4-mediated digoxin transport, in words (human ABCB4 [2]; digoxin 1 µM probe) | IC50 (human ABCB4 [2]; [9]) | Molecule | DILI Concern [4] | further results
did not inhibit ABCB4 | > 5 µM | CC[C@H](Nc1ncnc2[nH]cnc12)c1nc2cccc(F)c2c(=O)n1-c1ccccc1 [idelalisib] | – | –
ABCB4 inhibitors | – | C=C[C@@H]1C[C@]1(NC(=O)[C@@H]1C[C@@H](Oc2ncc(OC)c3ccc(Cl)cc23)CN1C(=O)[C@@H](NC(=O)OC(C)(C)C)C(C)(C)C)C(=O)NS(=O)(=O)C1CC1 [asunaprevir] | – | –
– | 1.4 µM | CC(C)(C)NC(=O)[C@@H]1C[C@@H]2CCCC[C@@H]2CN1C[C@@H](O)[C@H](Cc1ccccc1)NC(=O)[C@H](CC(N)=O)NC(=O)c1ccc2ccccc2n1 [saquinavir] | Less DILI concern | –
no interaction | > 10 µM | COc1ccnc(C[S+]([O-])c2nc3ccc(OC(F)F)cc3[nH]2)c1OC (stereo not drawn) [pantoprazole] | Less DILI concern | –
– | 1.09 µM | C=C[C@H]1C[N@@]2CC[C@H]1C[C@@H]2[C@@H](O)c1ccnc2ccc(OC)cc12 [quinidine] | – | efflux ratio at 1 µM (human ABCB4 [5]; human, pH 7.4, 1 µM, ABCB4 cells, read-out: Efflux ratio (ER)): < 2
no interaction | > 20 µM | CC(C)OC(=O)C(C)(C)Oc1ccc(C(=O)c2ccc(Cl)cc2)cc1 [fenofibrate] | – | –
– | > 80 µM | CC[C@H]1OC(=O)[C@H](C)[C@@H](O[C@H]2C[C@@](C)(OC)[C@@H](O)[C@H](C)O2)[C@H](C)[C@@H](O[C@@H]2O[C@H](C)C[C@H](N(C)C)[C@H]2O)[C@](C)(OC)C[C@@H](C)C(=O)[C@H](C)[C@@H](O)[C@]1(C)O [clarithromycin] | Most DILI concern | –
– | 48.6 µM | COc1ccc([C@@H]2Sc3ccccc3N(CCN(C)C)C(=O)[C@@H]2OC(C)=O)cc1 [diltiazem] | – | –
– | > 5 µM | C#Cc1cccc(Nc2ncnc3cc(OCCOC)c(OCCOC)cc23)c1 [erlotinib] | Most DILI concern | –
